Measured values published in patent US12102686B2, “Delivery systems and methods for reactive hydroxyl-containing compounds” (priority 2018, dated 2024).

Assay: Free curcumin stability and consumption in the presence of AAPH (absorbance at 420 nm, HPLC)
Assay type: physicochemical
Procedure: Periodic samples were collected and read at 420 nm using a Cary 50 UV-Vis Microplate Reader spectroscopy instrument to monitor absorbance of solution over 24 hours.

COc1cc(/C=C/C(=O)CC(=O)/C=C/c2ccc(O)c(OC)c2)ccc1O [Curcumin]
time curcumin was stable in aqueous solution (no significant change in absorbance, no precipitation) (50 μg/mL curcumin in 0.1% (w/v) Tween 80 PBS (pH 7.4), 37° C., no AAPH): over 24 hours | time after which the amount of curcumin decreases to 20% (10 mM AAPH): 4 h | curcumin consumed (10 mM AAPH solution, within the first 8 hours): 90% | time after which the amount of curcumin decreases to 20% (100 mM AAPH): 0.333 h | time of finality of curcumin consumption, experimental (100 mM AAPH): 8 h | curcumin consumed (100 mM AAPH solution, within the first hour): 90% | curcuminoid consumption susceptibility by AAPH (HPLC peak) (versus demethoxycurcumin and bisdemethoxycurcumin, FIG. 3): diminished at a faster rate
